The values below come from patent US6989378B2, “Testosterone derivative” (Akzo Nobel N.V., priority 1998, dated 2006).

Series [1] can be described thus: Solubility in oil solvent (amount of compound dissolved per ml of solvent). The settings on record: for solubility at 15 min: oil or lipid, thermodynamic from solid, dissolved by heating in waterbath of 50° C. and Vortex shaking 15 minutes. It is filed as physicochemical. As to the method: About 20–30 mgs of compound were powdered and then dissolved in as little solvent as necessary to dissolve all the visible particles. Dissolution was accomplished by heating in a waterbath of 50° C. and shaking on a Vortex™ shaker for 15 minutes. The solubility was calculated by determining the amount of compound (in mg) dissolved per ml of solvent.

The test system of series [2] is monkeys. Particulars: anabolic and antigonadotropic effects; cited from earlier work.
In series [3] the test system is rats. The settings on record: anabolic and antigonadotropic effects; cited from earlier work.
Setting [4] is: arachis oil, read-out: solubility arachis oil.
Where [5] appears, read: oleic acid, read-out: solubility oleic acid.

The structures appear in SMILES notation. Converted amounts (≈) assume the structure as drawn. Like-named read-outs stand apart in the source and are kept apart here.

For the compound `CCCCCCCCCCC(=O)O[C@H]1CC[C@H]2[C@H]3[C@H](CC[C@]12C)[C@H]1CCC(=O)C=C1C[C@H]3C` [MENT undecanoate, (7α,17β)-7-methyl-17-[(1-oxoundecyl)oxy]estr-4-en-3-one], the “solubility in arachis oil compared with the other androgens” value in series [1] (arachis oil, comparison in words) was “much better than that of any of the other androgens”. The solubility at 15 min is over 200 mg/mL in series [1] (setting [4]) and at least 500 mg/mL in series [1] (setting [5]). Besides, the “solubility in oleic acid compared with the known androgens” value in series [1] (oleic acid, comparison in words) is “better than expected”.

For the compound `C[C@@H]1CC2=CC(=O)CC[C@@H]2[C@H]2CC[C@]3(C)[C@@H](O)CC[C@H]3[C@@H]21` [MENT, (7α,17β)-17-hydroxy-7-methylestr-4-en-3-one], the “androgenic potency relative to testosterone” value in series [2] and in series [3] was “ten times more potent than testosterone” throughout. Further, the solubility at 15 min was at most 0.1 mg/mL in series [1] (setting [4]) and about 15 mg/mL (≈ 52 mM) in series [1] (setting [5]).

Consider `CCCCCCCCCCC(=O)O[C@H]1CC[C@H]2[C@@H]3CCC4=CC(=O)CC[C@]4(C)[C@H]3CC[C@]12C` [testosterone undecanoate, (17β)-17-[(1-Oxoundecyl)oxy]androst-4-en-3-one], for which the results for the solubility at 15 min in series [1] (setting [4]) and in series [1] (setting [5]) were about 45 mg/mL (≈ 98.5 mM) and 200 to 250 mg/mL (≈ 438 to 547 mM), respectively.

For `C[C@]12CC[C@H]3[C@@H](CCC4=CC(=O)CC[C@@]43C)[C@@H]1CC[C@@H]2O` [testosterone], the results for the solubility at 15 min in series [1] (setting [4]) and in series [1] (setting [5]) were under 0.1 mg/mL and about 25 mg/mL (≈ 86.7 mM), respectively.

As a reminder, the solubility is how much of the substance goes into solution per volume.
